For experiment [1], the target named is T1, Amyloid-beta precursor protein (Homo sapiens, UniProt P05067). The experiment can be described thus: Inhibition of self-induced amyloid beta (1-40) aggregation at 10 uM by thioflavin T formation assay.
The next experiment deals with Acetylcholinesterase (Homo sapiens, UniProt P22303). The experiment can be described thus: Inhibition of human recombinant AChE by Ellman's assay. A general note: DTNB colorimetry detects thiols as they appear.
The target in a further experiment is Cholinesterase (Homo sapiens, UniProt P06276). The experiment is described as follows: Inhibition of human serum BChE by Ellman's assay.
The target in experiment [2] is T1, Amyloid-beta precursor protein. The experiment is described as follows: Inhibition of self-induced amyloid beta (1-40) aggregation by thioflavin T formation assay.

T1 sequence (P05067 whole entry): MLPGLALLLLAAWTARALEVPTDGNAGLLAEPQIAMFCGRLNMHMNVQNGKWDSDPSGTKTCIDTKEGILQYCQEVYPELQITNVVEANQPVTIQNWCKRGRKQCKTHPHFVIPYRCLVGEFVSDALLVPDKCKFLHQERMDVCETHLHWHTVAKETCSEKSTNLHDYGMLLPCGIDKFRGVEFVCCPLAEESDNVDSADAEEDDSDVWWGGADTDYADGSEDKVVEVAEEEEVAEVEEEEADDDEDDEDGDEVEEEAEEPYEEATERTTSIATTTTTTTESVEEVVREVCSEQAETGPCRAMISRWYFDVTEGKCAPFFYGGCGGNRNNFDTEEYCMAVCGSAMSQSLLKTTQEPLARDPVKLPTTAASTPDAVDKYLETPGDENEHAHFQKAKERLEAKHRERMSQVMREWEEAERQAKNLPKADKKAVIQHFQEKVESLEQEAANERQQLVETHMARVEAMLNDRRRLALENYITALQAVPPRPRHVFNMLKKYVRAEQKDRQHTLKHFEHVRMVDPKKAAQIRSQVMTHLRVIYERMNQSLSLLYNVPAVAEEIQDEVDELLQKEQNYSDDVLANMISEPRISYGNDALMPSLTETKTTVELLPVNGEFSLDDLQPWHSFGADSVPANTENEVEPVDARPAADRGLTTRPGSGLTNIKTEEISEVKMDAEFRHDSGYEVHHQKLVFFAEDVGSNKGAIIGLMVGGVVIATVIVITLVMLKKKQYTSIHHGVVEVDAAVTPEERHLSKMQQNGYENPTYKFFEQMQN
Sequence of Cholinesterase (P06276 whole entry): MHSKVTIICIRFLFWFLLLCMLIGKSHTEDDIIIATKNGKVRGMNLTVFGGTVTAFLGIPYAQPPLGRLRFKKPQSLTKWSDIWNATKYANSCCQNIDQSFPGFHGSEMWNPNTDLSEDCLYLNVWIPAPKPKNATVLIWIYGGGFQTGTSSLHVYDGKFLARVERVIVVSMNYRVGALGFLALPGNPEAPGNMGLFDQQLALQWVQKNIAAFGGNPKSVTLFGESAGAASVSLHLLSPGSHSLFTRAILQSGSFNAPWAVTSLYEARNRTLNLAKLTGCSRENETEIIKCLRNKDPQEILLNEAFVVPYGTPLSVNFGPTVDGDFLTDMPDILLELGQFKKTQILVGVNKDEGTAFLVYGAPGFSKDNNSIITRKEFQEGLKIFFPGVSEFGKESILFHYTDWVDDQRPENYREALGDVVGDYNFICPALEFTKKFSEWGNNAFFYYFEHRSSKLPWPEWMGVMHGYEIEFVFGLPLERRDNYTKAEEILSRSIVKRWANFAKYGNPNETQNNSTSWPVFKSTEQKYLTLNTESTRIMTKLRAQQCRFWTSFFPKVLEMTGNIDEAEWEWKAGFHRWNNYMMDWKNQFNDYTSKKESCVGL
Sequence of Acetylcholinesterase (P22303 whole entry): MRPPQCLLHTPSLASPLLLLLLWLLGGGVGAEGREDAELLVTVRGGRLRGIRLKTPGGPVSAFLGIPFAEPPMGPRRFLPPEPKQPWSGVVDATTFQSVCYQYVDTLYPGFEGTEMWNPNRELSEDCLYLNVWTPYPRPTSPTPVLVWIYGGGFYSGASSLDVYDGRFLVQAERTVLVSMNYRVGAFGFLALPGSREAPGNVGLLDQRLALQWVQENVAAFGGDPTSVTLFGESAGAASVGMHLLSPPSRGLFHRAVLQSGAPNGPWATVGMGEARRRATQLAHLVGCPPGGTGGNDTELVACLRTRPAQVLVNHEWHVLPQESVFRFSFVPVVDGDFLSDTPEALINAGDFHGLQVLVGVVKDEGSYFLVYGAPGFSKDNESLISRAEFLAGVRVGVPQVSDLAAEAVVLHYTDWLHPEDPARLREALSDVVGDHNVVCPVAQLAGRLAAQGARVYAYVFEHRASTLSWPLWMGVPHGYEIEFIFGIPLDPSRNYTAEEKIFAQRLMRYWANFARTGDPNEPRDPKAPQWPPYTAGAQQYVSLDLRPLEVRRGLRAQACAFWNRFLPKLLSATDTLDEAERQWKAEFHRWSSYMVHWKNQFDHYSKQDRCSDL

`CCN(CCCCCC(=O)N1CCC(C2CCN(C(=O)CCCCCN(CC)Cc3ccccc3OC)CC2)CC1)Cc1ccccc1OC` returned an inhibition in experiment [1] of 13.7%.

On to `CCN(CCCCCC(=O)N1CCN(C(=O)CCCCCN(CC)Cc2ccccc2OC)CC1)Cc1ccccc1OC`, for which the IC50 on Acetylcholinesterase came to 0.0257 µM; on Cholinesterase, 10.7 µM. For the same compound, in experiment [1], the inhibition is under 5%.

Turning to `CCN(CCCCCCn1c(=O)c2cc3c(=O)n(CCCCCCN(CC)Cc4ccccc4OC)c(=O)c3cc2c1=O)Cc1ccccc1OC`, the IC50 at Acetylcholinesterase was 0.0077 µM; on Cholinesterase it was 3 µM. The compound also came in with an inhibition in experiment [1] of under 5%.

`CCN(CCCCCCn1c(=O)c(=O)n(CCCCCCN(CC)Cc2ccccc2OC)c2ccccc21)Cc1ccccc1OC`: the IC50 on Acetylcholinesterase is 0.00141 µM; on Cholinesterase it was 0.0958 µM. The same compound came in with an inhibition in experiment [1] of 8.8%.

`COc1ccccc1CN(C)CCCCCC(=O)N(C)CCCCCCCCN(C)C(=O)CCCCCN(C)Cc1ccccc1OC` showed an inhibition in experiment [1] of 20.3%.

Regarding `CCN(CCCCCCN1CCN(CCCCCCN(CC)Cc2ccccc2OC)C(=O)C1=O)Cc1ccccc1OC`, the half-inhibitory concentration (IC50) was 0.0689 µM on Acetylcholinesterase and 10.3 µM at Cholinesterase.

For the compound `CCN(CCCCCCN1C(=O)c2ccc3c4c(ccc(c24)C1=O)C(=O)N(CCCCCCN(CC)Cc1ccccc1OC)C3=O)Cc1ccccc1OC`, the values for the IC50 (on Acetylcholinesterase; at Cholinesterase; in experiment [2]) were 0.00037 µM, 1.91 µM and 9.69 µM, respectively. The compound further showed an inhibition in experiment [1] of 54.5%.

For the compound `CCN(CCCCCC(=O)N[C@H]1CCCC[C@H]1NC(=O)CCCCCN(CC)Cc1ccccc1OC)Cc1ccccc1OC`, the IC50 at Acetylcholinesterase turned out to be 4.16 µM; against Cholinesterase, 30.8 µM.

Consider `CCN(CCCCCCN1C(=O)c2ccc(-c3ccc4c(c3)C(=O)N(CCCCCCN(CC)Cc3ccccc3OC)C4=O)cc2C1=O)Cc1ccccc1OC`, for which the IC50 was 0.014 µM at Acetylcholinesterase and 0.293 µM against Cholinesterase. In addition, the inhibition in experiment [1] is 16.5%.

In the case of `CCN(CCCCCCN1C(=O)c2cccc3cccc(c23)C1=O)Cc1ccccc1OC`, the IC50 at Acetylcholinesterase came to 0.0535 µM; on Cholinesterase, 0.416 µM. Moreover, in experiment [1], the inhibition was under 5%.

`CCN(CCCCCC(=O)N[C@H]1CCCC[C@@H]1NC(=O)CCCCCN(CC)Cc1ccccc1OC)Cc1ccccc1OC` (racemic): the concentration for half-maximal inhibition (IC50) on Acetylcholinesterase was 5.47 µM; against Cholinesterase, 36.8 µM.

Turning to `CCN(CCCCCCN1CCN(CCCCCCN(CC)Cc2ccccc2OC)C1=O)Cc1ccccc1OC`, the half-inhibitory concentration (IC50) was 0.0724 µM on Acetylcholinesterase and 0.876 µM at Cholinesterase. This compound yielded an inhibition in experiment [1] of under 5%.

For `CCN(CCCCCCN1CC(=O)N(CCCCCCN(CC)Cc2ccccc2OC)CC1=O)Cc1ccccc1OC`, the results for the IC50 at Acetylcholinesterase and at Cholinesterase were 0.0159 µM and 2.09 µM, respectively. For the same compound, the inhibition in experiment [1] was found to be 4.8%.

For the compound `CCN(CCCCCC(=O)N[C@H]1CC[C@H](NC(=O)CCCCCN(CC)Cc2ccccc2OC)CC1)Cc1ccccc1OC`, the figures for the half-maximal inhibitory concentration (IC50) at Acetylcholinesterase and at Cholinesterase were 8.55 µM and 25.3 µM, respectively.

With `CCN(CCCCCC(=O)N1Cc2ccc3c4c(ccc(c24)C1)CN(C(=O)CCCCCN(CC)Cc1ccccc1OC)C3)Cc1ccccc1OC`, the concentration for half-maximal inhibition (IC50) was determined as 0.00483 µM at Acetylcholinesterase and 1.04 µM on Cholinesterase. The compound further had an inhibition in experiment [1] of 12.7%.

The term inhibition denotes the percentage by which the read-out fell short of the control. For orientation: IC50 means the concentration that inhibits the measured activity by half.

Source of the values: ChEMBL document CHEMBL1152287, “Structure-activity relationships of acetylcholinesterase noncovalent inhibitors based on a polyamine backbone. 4. Further investigation on the inner spacer” (J Med Chem, 2008).
